Measured values: US12291502B2, “Topoisomerase II-alpha inhibitors and methods of treating cancer using the same” (The Regents of the University of Colorado, priority 2019, dated 2025)

Tests used:
tumor xenograft = test: Tumor xenograft study, tumor growth; assay type: in vivo, athymic nude mouse; details: i.p. 50 mg/kg, 5× per week over 28 days
Description: Finally, a major goal of this drug design approach was to improve the in vivo physicochemical properties of TOP2A inhibitors compared to the natural product neo. Therefore, an in vivo study was conducted using the athymic nude mouse tumor xenograft model to determine if one of these drug leads could accumulate in tumors when administered via intraperitoneal injection (i.p.). […] Thus, compound 42 was administered i.p. at 50 mg/kg, 5× per week over 28 days.

SW620 tumor organoids = test: 3D invasion assay; assay type: cell-based; details: SW620 tumor organoids treated 72 hours, viable cells incubated further 72 hours
Description: 3D Invasion Assay. SW620 cells were transduced with NucLight®-Red virus (Essen BioSciences, MI) and selected with Zeocin (200 μg/mL). Transduced cells were cultured in RPMI-1640 media supplemented with 5% FBS and allowed to grow in a […] until ˜80% confluent. Afterwards, cells were plated in a CellCarrier Spheroid Ultra-Low Attachment 96-well plate (PerkinElmer, MA) at 5,000 cells/well in 2% Matrigel (Corning, NY) and allowed to grow for 72 hours. Cells were then treated with 10 μM of analogs […] and cultured for an additional 72 hours. Organoids were then collected, half a 96-well plate per treatment condition, spun down at 500 g, washed with PBS, and dissociated with 500 μL of Cultrex® Organoid Harvesting Solution (Trevigen, MD) for 30 min in ice with moderate mixing. Single cells were then spun down at 500 g, the supernatant was discarded, cells were washed with PBS, re-centrifuged, and resuspended in RPMI-1640 media supplemented with 0.5% FBS. Live cells were counted and then plated in an Incucyte® ClearView 96-well cell migration plate (Essen BioSciences, MI) in a 1:1 ratio of Matrigel (Corning, NY) and RPMI-1640 media supplemented with 0.5% FBS and 1% penicillin/streptomycin at 5,000 cells/well. […] Cell invasion was monitored using the Incucyte® ZOOM imaging system (Essen BioSciences, MI) for bottom fluorescence of invading cells per manufacturer's recommendations. […]

Row | SMILES | tumor growth (tumor xenograft) | invasive potential, in words (SW620 tumor organoids)
1 | O=C(CCN1CCOCC1)Nc1ccc2c(-c3cc(F)ccc3O)ccnc2c1O [Analog 42] | no loss of any tumor growth was observed | –
2 | CC(=O)Nc1ccc2c(-c3cc(F)ccc3O)ccnc2c1O [Analog 7] | – | inhibit the invasive potential
